In US20150105252A1, “SUBSTITUTED PYRAZOLES AS HERBICIDES” (E I DU PONT DE NEMOURS AND COMPANY, priority 2013, published 2015):

How the values were obtained:
bermudagrass = test: Test E preemergence; type: in vivo, Cynodon dactylon; conditions: 21 days, scale 0 to 100
Source text: (§1) Seeds of plant species selected from bermudagrass (Cynodon dactylon), Surinam grass (Brachiaria decumbens), crabgrass, large (large crabgrass, Digitaria sanguinalis), crabgrass, naked (naked crabgrass, Digitaria nuda), foxtail, green (green foxtail, Setaria viridis), johnsongrass (Sorghum halepense), kochia (Kochia scoparia), morningglory (pitted morningglory, Ipomoea lacunosa), nutsedge, purple (purple nutsedge, Cyperus rotundus), ragweed (common ragweed, Ambrosia elation), mustard, black (black mustard, Brassica nigra), guineagrass (Panicum maximum), dallisgrass (Paspalum dilatatum), barnyardgrass (Echinochloa crus-galli), sandbur (southern sandbur, Cenchrus echinatus), sowthistle (common sowthistle, Sonchus oleraceous), ryegrass, Italian (Italian ryegrass, Lolium multiflorum), signalgrass (broadleaf signalgrass, Brachiaria platyphylla), dayflower, VA (Virginia (VA) dayflower, Commelina virginica), bluegrass (annual bluegrass, Poa annua), quackgrass (Elytrigia repens), mallow (common mallow, Malva sylvestris), buckwheat, wild (wild buckwheat, Polygonum convolvulus), leafy spurge (Euphorbia esula), common chickweed (Stellaria media), wild poinsettia (Euphorbia heterophylla), pigweed, palmer (palmer pigweed, Amaranthus palmeri), and pigweed (redroot pigweed, Amaranthus retroflexus) were planted into a blend of loam soil and sand and treated preemergence with test chemicals formulated in a non-phytotoxic solvent mixture which included a surfactant.
(§2) Treated plants and controls were maintained in a greenhouse for 21 days, after which time all species were compared to controls and visually evaluated. Plant response ratings, summarized in Table E, are based on a scale of 0 to 100 where 0 is no effect and 100 is complete control. A dash (-) response means no test result.

morningglory = test: Test E preemergence; type: in vivo, Ipomoea lacunosa; conditions: 21 days, scale 0 to 100
Source text: as §1, §2

Surinam grass = test: Test E preemergence; type: in vivo, Brachiaria decumbens; conditions: 21 days, scale 0 to 100
Source text: as §1, §2

common chickweed = test: Test E preemergence; type: in vivo, Stellaria media; conditions: 21 days, scale 0 to 100
Source text: as §1, §2

crabgrass, large = test: Test E preemergence; type: in vivo, Digitaria sanguinalis; conditions: 21 days, scale 0 to 100
Source text: as §1, §2

chamomile = test: Test D preemergence; type: in vivo, Matricaria inodora; conditions: scale 0 to 100
Source text: Seeds of plant species selected from bluegrass (annual bluegrass, Poa annua), blackgrass (Alopecurus myosuroides), canarygrass (littleseed canarygrass, Phalaris minor), chickweed (common chickweed, Stellaria media), galium (catchweed bedstraw, Galium aparine), bromegrass, downy (downy bromegrass, Bromus tectorum), field poppy (Papaver rhoeas), field violet (Viola arvensis), foxtail, green (green foxtail, Setaria viridis), deadnettle (henbit deadnettle, Lamium amplexicaule), ryegrass, Italian (Italian ryegrass, Lolium multiflorum), kochia (Kochia scoparia), lambsquarters (Chenopodium album), oilseed rape (Brassica napus), pigweed (redroot pigweed, Amaranthus retroflexus), chamomile (scentless chamomile, Matricaria inodora), speedwell (bird's-eye speedwell, Veronica persica), barley, spring (spring barley, Hordeum vulgare), wheat, spring (spring wheat, Triticum aestivum), buckwheat, wild (wild buckwheat, Polygonum convolvulus), mustard, wild (wild mustard, Sinapis arvensis), oat, wild (wild oat, Avena fatua), radish, wild (wild radish, Raphanus raphanistrum), windgrass (Apera spica-venti), Russian thistle (Salsola kali), barley, winter (winter barley, Hordeum vulgare), and wheat, winter (winter wheat, Triticum aestivum) were planted into a silt loam soil and treated preemergence with test chemicals formulated in a non-phytotoxic solvent mixture which included a surfactant.
At the same time, these species were planted in pots containing Redi-Earth® planting medium (Scotts Company, 14111 Scottslawn Road, Marysville, Ohio 43041) comprising spaghnum peat moss, vermiculite, wetting agent and starter nutrients and treated with postemergence applications of the test chemicals formulated in the same manner. Plants ranged in height from 2 to 18 cm (1- to 4-leaf stage). Treated plants and controls were maintained in a controlled growth environment for 14 to 21 days after which time all species were compared to controls and visually evaluated. Plant response ratings, summarized in Table D, are based on a scale of 0 to 100 where 0 is no effect and 100 is complete control. A dash (-) response means no test result.

## CCCc1cc(C(=O)NCC(F)(F)F)nn1Cc1ccnc(C(F)(F)F)c1 [Compound 105]
bermudagrass; 16 g ai/ha
  Plant response rating, Bermudagrass: 70
bermudagrass; 31 g ai/ha
  Plant response rating, Bermudagrass: 90
bermudagrass; 62 g ai/ha
  Plant response rating, Bermudagrass: 98
bermudagrass; 125 g ai/ha
  Plant response rating, Bermudagrass: 98
bermudagrass; 250 g ai/ha
  Plant response rating, Bermudagrass: 100
morningglory; 16 g ai/ha
  Plant response rating, Morningglory: 100
morningglory; 31 g ai/ha
  Plant response rating, Morningglory: 100
morningglory; 62 g ai/ha
  Plant response rating, Morningglory: 100
morningglory; 125 g ai/ha
  Plant response rating, Morningglory: 100
morningglory; 250 g ai/ha
  Plant response rating, Morningglory: 100
Surinam grass; 16 g ai/ha
  Plant response rating, Surinam Grass: 35
Surinam grass; 31 g ai/ha
  Plant response rating, Surinam Grass: 40
Surinam grass; 62 g ai/ha
  Plant response rating, Surinam Grass: 80
Surinam grass; 125 g ai/ha
  Plant response rating, Surinam Grass: 95
Surinam grass; 250 g ai/ha
  Plant response rating, Surinam Grass: 100
Common chickweed; 16 g ai/ha
  Plant response rating, Common Chickweed: 98
Common chickweed; 31 g ai/ha
  Plant response rating, Common Chickweed: 100
Common chickweed; 62 g ai/ha
  Plant response rating, Common Chickweed: 100
Common chickweed; 125 g ai/ha
  Plant response rating, Common Chickweed: 100
Common chickweed; 250 g ai/ha
  Plant response rating, Common Chickweed: 100
crabgrass, large; 16 g ai/ha
  Plant response rating, Crabgrass, Large: 98
crabgrass, large; 31 g ai/ha
  Plant response rating, Crabgrass, Large: 100
crabgrass, large; 62 g ai/ha
  Plant response rating, Crabgrass, Large: 100
crabgrass, large; 125 g ai/ha
  Plant response rating, Crabgrass, Large: 100
crabgrass, large; 250 g ai/ha
  Plant response rating, Crabgrass, Large: 100

## CCCc1cc(C(=O)NCC(F)(F)F)nn1Cc1cc(C(F)(F)F)nn1C [Compound 138]
chamomile; 31 g ai/ha
  Plant response rating, Chamomile: 0
chamomile; 62 g ai/ha
  Plant response rating, Chamomile: 95
chamomile; 125 g ai/ha
  Plant response rating, Chamomile: 100
chamomile; 250 g ai/ha
  Plant response rating, Chamomile: 100

## CCOc1cc(C(=O)NC(C)C)nn1Cc1ccnc(C(F)(F)F)c1 [Compound 188]
chamomile; 31 g ai/ha
  Plant response rating, Chamomile: 100
chamomile; 62 g ai/ha
  Plant response rating, Chamomile: 100
chamomile; 125 g ai/ha
  Plant response rating, Chamomile: 100
chamomile; 250 g ai/ha
  Plant response rating, Chamomile: 100

## CCOc1cc(C(=O)NC2CC2)nn1Cc1ccnc(C(F)(F)F)c1 [Compound 189]
bermudagrass; 4 g ai/ha
  Plant response rating, Bermudagrass: 0
bermudagrass; 8 g ai/ha
  Plant response rating, Bermudagrass: 0
bermudagrass; 16 g ai/ha
  Plant response rating, Bermudagrass: 65
bermudagrass; 31 g ai/ha
  Plant response rating, Bermudagrass: 85
bermudagrass; 62 g ai/ha
  Plant response rating, Bermudagrass: 98
morningglory; 4 g ai/ha
  Plant response rating, Morningglory: 0
morningglory; 8 g ai/ha
  Plant response rating, Morningglory: 30
morningglory; 16 g ai/ha
  Plant response rating, Morningglory: 90
morningglory; 31 g ai/ha
  Plant response rating, Morningglory: 100
morningglory; 62 g ai/ha
  Plant response rating, Morningglory: 100
Surinam grass; 4 g ai/ha
  Plant response rating, Surinam Grass: 0
Surinam grass; 8 g ai/ha
  Plant response rating, Surinam Grass: 0
Surinam grass; 16 g ai/ha
  Plant response rating, Surinam Grass: 25
Surinam grass; 31 g ai/ha
  Plant response rating, Surinam Grass: 80
Surinam grass; 62 g ai/ha
  Plant response rating, Surinam Grass: 100
crabgrass, large; 4 g ai/ha
  Plant response rating, Crabgrass, Large: 0
crabgrass, large; 8 g ai/ha
  Plant response rating, Crabgrass, Large: 95
crabgrass, large; 16 g ai/ha
  Plant response rating, Crabgrass, Large: 100
crabgrass, large; 31 g ai/ha
  Plant response rating, Crabgrass, Large: 100
crabgrass, large; 62 g ai/ha
  Plant response rating, Crabgrass, Large: 100
chamomile; 31 g ai/ha
  Plant response rating, Chamomile: 65
chamomile; 62 g ai/ha
  Plant response rating, Chamomile: 100
chamomile; 125 g ai/ha
  Plant response rating, Chamomile: 100
chamomile; 250 g ai/ha
  Plant response rating, Chamomile: 100
